Series [1] relates to CRC cells. Nature of the series: Transwell invasion assay. As to conditions: 5 µM, 24 h, versus vehicle-treated control. In kind it is cell-based, human.
The subject of series [2] is HCT116 cells. Nature of the series: MTT cell viability, HCT116. In kind it is cell-based. The following applies: Homo sapiens, HCT-116; 48 h, MTT assay. The protocol: (§1) Cells (3 × 10^3 cells/well) were seeded on a 96‐well plate, grown overnight, and then treated with compounds at indicated concentrations for 48 h. After incubation with MTT for 4 h at 37°C, cells were lysed with 150 µL of DMSO (Sigma–Aldrich, St. Louis, USA). Absorbance was measured at 570 nm on a microplate reader with the Gen5 software (v.2.03.1; BioTek, Winooski, VT, USA).

The test system of series [3] is caspase 3/7 in CRC cells. Nature of the series: Caspase-Glo 3/7 activity. The following applies: 10 µM, 48 h, relative to DMSO. Format: cell-based, human. Here is the method: Caspase 3/7 activity was determined with a Caspase-Glo 3/7 assay kit (Promega). CRC cells were seeded in 96 well plates, 10000 per well cells, with media containing 2% FBS. Treatments were applied after overnight incubation, incubated for 48 hours. After treatment, Caspase-Glo reagent was added to each well and incubated in the dark for 1 hour. […] was recorded with the GloMax® Microplate Reader.

Series [4] deals with CRC cell lines. In words: Apoptosis / cell death analysis. In kind it is cell-based, human. Here is the method:
Cells were cultured in a six‐well plate at the density of 2 × 10^5 cells/well until adherence. Cells were treated with DMSO or compound for 48 h. Apoptosis or cell cycle experiments were then performed. For apoptosis analysis, cells were harvested and washed with PBS, resuspended in 100 µL of 1× binding buffer followed by staining with 4 µL of Annexin V–FITC (BD, Biosciences, San Jose, CA, USA), and 8 µL of 50 µg/mL propidium iodide (PI; BD Biosciences, San Jose, CA, USA) for 30 min in the dark. For cell cycle analysis, cells were washed with FACS washing buffer, incubated with trypsin solution, followed by RNase A for 10 min at room temperature. Cells were centrifuged and pellets were collected and stained with 100 µL of 4 mg/mL PI (Sigma–Aldrich) for 2 h in the dark at 4°C. Cells were detected by flow cytometry on a CytoFLEX instrument (Beckman Coulter Life Sciences, Indianapolis, IN, USA).

The nature of series [5]: Tissue distribution in CT26 tumor-bearing mice (LC–MS/MS). As to conditions: Balb/c mice, 10 mg/kg; for distribution in tumor and intestines: 24 h, compared with TU and DA; for concentration at 24 h: mouse. In kind it is in vivo. The protocol: Concentrations of TU, DA, SB4, and SB5 in tissues (liver, intestine, and tumor) and plasma were measured using LC–MS/MS. Samples were prepared by 40 µL of plasma or the supernatant separated from the tissue pellet and added 120 µL of acetonitrile (ACN) containing internal standard (IS). The samples were vortexed, sonicated for 30 min, and then left on ice for 15 min. Subsequently, the samples were centrifuged at 3000×g for 20 min, and the supernatant was analyzed. Calibration curves were prepared by matrix matched with tissue supernatants‐treated DMSO. The standard concentrations were set at 0, 62.5, 250, and 1000 nM for each compound. The LC–MS/MS system comprised a 40D‐XS UHPLC system (Shimadzu), and API 4000 mass spectrometer equipped with a Turbo V IonSpray source (Applied Biosystems). The sample separation was performed on a Waters Atlantis dC18 column (2.1 × 100 mm, 3 µm) using a mobile phase consisting of 0.1% formic acid in water (mobile phase A) and 0.1% formic acid in ACN (mobile phase B). A linear gradient of the two solvents was used (0 min, 0% B; 4 min, 50% B; 7 min, 95% B; 8 min, 0% B), and the equilibration time was 2 min. The flow rate was set at 0.4 mL/min, the column temperature was maintained at 30°C, and the injection volume was 10 µL.
MS/MS analysis was conducted in multiple reaction monitoring (MRM). In positive ion mode transitions were set for DA (m/z 375 → 193), SB4 (m/z 447 → 193), SB5 (m/z 461 → 193), and the IS carbamazepine (100 nM, m/z 237 → 197). In negative ion mode, MRM transitions were monitored for TU (m/z 339 → 217) and the IS 4‐methylumbelliferone (300 nM, m/z 175 → 133). The Turbo V Ion Spray interface was operated in 5500 V (pos) or −4500 V (neg), with a source temperature of 600°C. Nebulizing gas flow, auxiliary gas flow, and curtain gas flow were set at 50, 40, and 30 L/min, respectively, while the collision gas pressure was maintained at 3.4 × 10^−⁵ Torr. Data were analyzed by analyst 1.6.2 (AB Sciex, Framingham, USA).

For series [6], the system named is CSC221 cells. Nature of the series: MTT cell viability, CSC221. In kind it is cell-based. As to conditions: Homo sapiens; 48 h, MTT assay. Here is the method:
as §1
(In general: Tetrazolium dyes change colour on reduction, which living cells bring about.)

The subject of series [7] is NIH3T3 cells. In words: MTT cell viability, NIH3T3. The following applies: Mus musculus, 48 h, MTT assay. Format: cell-based. Here is the method:
as §1

The subject of series [8] is CSC221 cells. Nature of the series: Spheroid formation assay, CSC221. In kind it is cell-based, human. As to conditions: for spheroid formation, cotreatment with cetuximab: CSC221, 5 µM with cetuximab 10, 25, and 50 µg/mL, 2 weeks; for spheroid formation: CSC221, up to 10 µM, 14 days, compared with TU and DA. Here is the method:
Monolayer cells were separated into single‐cell suspensions at around 70% confluence using a solution of trypsin. After that, the cells were added to N2‐supplemented DMEM/F12 that contained human basal fibroblast growth factor and human recombinant epidermal growth factor. Cells seeded at a density of 5 × 10^3 cells/well in ultra‐low attachment 24‐well plates (Corning Inc., Corning, NY, USA). After 10–14 days of culture, spheres were quantitated by inverted phase contrast microscopy. The relative sphere formation ability was calculated through the IMT iSolution software (IMT iSolution Inc., Northampton, NJ, USA) measuring the pixel intensity of the sphere area randomly in each plate.

The subject of series [9] is HaCaT cells. Nature of the series: MTT cell viability, HaCaT. Format: cell-based. As to conditions: Homo sapiens, 48 h, MTT assay. Here is the method: as §1
The mark [10] stands for this setting: liver, read-out: concentration in liver.
The mark [11] stands for this setting: plasma, read-out: quantity in plasma.

As usually defined, the IC50 is the concentration that inhibits the measured activity by half. Lower therefore signals greater potency in that assay.

Read-outs that look alike come from different tables or passages of the source. Some results are limits rather than exact numbers.

As for `COCCOc1c(C)c(OC(=O)c2c(C)cc(OC)c(C)c2OC)cc(C)c1C(=O)OC` [SB4, 4-(Methoxycarbonyl)-3-(2-methoxyethoxy)-2,5-dimethylphenyl 2,4-dimethoxy-3,6-dimethylbenzoate], the “number of invaded cells” value in series [1] is “significantly reduced the number of invaded cells”. Also, the IC50 in [2] was 11.7 µM; in [6], 60 µM; in series [7], 121 µM; in series [9], 26.7 µM. In addition, the “caspase 3/7 activity” value in series [3] is recorded as “induced”. Moreover, in [4], the “concentration with cell death ability” value is on record as roughly 10 µM. The “distribution in tumor and intestines” value in series [5] is “bioavailability is improved compared with TU and DA”. In addition, the concentration at 24 h in [5] (setting [10]) is 1 to 2 nM; in [5] (setting [11]) it was less than 2 nM. The “spheroid formation, cotreatment with cetuximab” value in series [8] is reported as “significantly reduced the adverse effects of cetuximab”. In series [8], the spheroid formation entry was “suppress spheroid formation more strongly than TU and DA”.

`COCCCOc1c(C)c(OC(=O)c2c(C)cc(OC)c(C)c2OC)cc(C)c1C(=O)OC` [SB5, 4-(Methoxycarbonyl)-3-(3-methoxypropoxy)-2,5-dimethylphenyl 2,4-dimethoxy-3,6-dimethylbenzoate]: in [1], the “number of invaded cells” value is reported as “significantly reduced the number of invaded cells”. The IC50 in [2] is 4.5 µM; in series [6], 131 µM; in [7] it was 112 µM; in series [9], 70.7 µM. Also, the “caspase 3/7 activity” value in series [3] is reported as “induced”. Further, the “concentration with cell death ability” value in [4] is roughly 10 µM. In [5], the “distribution in tumor and intestines” value was “bioavailability is improved compared with TU and DA”. For the same compound, the concentration at 24 h in series [5] (setting [10]) was 1 to 2 nM; in series [5] (setting [11]), less than 2 nM. Also, the “spheroid formation, cotreatment with cetuximab” value in [8] is on record as “significantly reduced the adverse effects of cetuximab”. Further, the spheroid formation entry in series [8] is “suppress spheroid formation more strongly than TU and DA”.
